Experimental data from ChEMBL document CHEMBL5512674, “Novel Acyl Thiourea-Based Hydrophobic Tagging Degraders Exert Potent Anti-Influenza Activity through Two Distinct Endonuclease Polymerase Acidic-Targeted Degradation Pathways” (J Med Chem, 2024).
Activity calls are given as the source filed them. The calls are words filed in the database; no cut-off is given here.

Assays:
[1] = Cytotoxicity against human HEK293T cells assessed as reduction in cell viability incubated for 48 hrs by CCK-8 assay; format: toxicity, cell-based, HEK-293T
[2] = Selectivity index, ratio of CC50 for cytotoxicity against human HEK293T cells to EC50 for anti-influenza activity against Influenza A virus A/WSN/33(H1N1) infected in HEK293T cells assessed as reduction in virus-induced cytopathic effect; format: toxicity, cell-based; details: read-out: Ratio CC50/EC50
Influenza A virus [3] = assay: Anti-influenza activity against Influenza A virus A/PR/8/34 (H1N1) infected in MDCK cells assessed as inhibition of viral growth at 100 uM incubated for 48 hrs by luciferase assay relative to control; format: functional
Influenza A virus [4] = assay: Anti-influenza activity against Influenza A virus A/WSN/33(H1N1) infected in HEK293T cells assessed as reduction in virus-induced cytopathic effect incubated for 48 hrs by CCK-8 assay; format: functional, organism-based; details: HEK-293T
Influenza A virus [5] = assay: Anti-influenza activity against Influenza A virus A/WSN/33(H1N1) infected in MDCK cells assessed as downregulation of nucleoprotein expression at 100 nM incubated for 24 hrs by Western blotting analysis relative to control; format: functional
[6] = Cytotoxicity against dog MDCK cells assessed as reduction in cell viability incubated for 48 hrs by CCK-8 assay; format: toxicity, cell-based, Canis lupus familiaris
Influenza B virus [7] = assay: Anti-influenza activity against Influenza B virus Victoria/2/87 infected in HEK293T cells assessed as reduction in virus-induced cytopathic effect incubated for 48 hrs by CCK-8 assay; format: functional, organism-based; details: Victoria/2/87, HEK-293T
Influenza A virus [8] = assay: Anti-influenza activity against Influenza A virus A/PR/8/34 (H1N1) infected in MDCK cells assessed as inhibition of viral growth at 0.8 nM incubated for 48 hrs by luciferase assay relative to control; format: functional
Influenza B virus [9] = assay: Anti-influenza activity against Influenza B virus Yamagata/16/88 infected in HEK293T cells assessed as reduction in virus-induced cytopathic effect incubated for 48 hrs by CCK-8 assay; format: functional, organism-based; details: Yamagata/16/88, HEK-293T
Influenza A virus [10] = assay: Anti-influenza activity against Influenza A virus A/PR/8/34 (H1N1) infected in MDCK cells assessed as inhibition of viral growth incubated for 48 hrs by luciferase assay; format: functional, organism-based
Influenza A virus [11] = assay: Anti-influenza activity against Influenza A virus H3N2 infected in HEK293T cells assessed as reduction in virus-induced cytopathic effect incubated for 48 hrs by CCK-8 assay; format: functional, organism-based; details: H3N2, HEK-293T
Influenza A virus [12] = assay: Anti-influenza activity against Influenza A virus A/WSN/33(H1N1) infected in MDCK cells assessed as downregulation of nucleoprotein expression at 1.56 to 100 nM incubated for 24 hrs by Western blotting analysis; format: functional, organism-based; details: dose 1.56-100 nM

Row | SMILES | CC50 at 48 h [1] [µM] | selectivity ratio [2] | inhibition at 100 µM (Influenza A virus [3]) [%] | EC50 (Influenza A virus [4]) [µM] | Activity (Influenza A virus [5]) [%] | CC50 at 48 h [6] [µM] | EC50 (Influenza B virus [7]) [µM] | inhibition at 0.0008 µM (Influenza A virus [8]) [%] | EC50 (Influenza B virus [9]) [µM] | IC50 (Influenza A virus [10]) [µM] | EC50 (Influenza A virus [11]) [µM] | Activity (Influenza A virus [12])
1 | NC12CC3CC(CC(C3)C1)C2 [AMANTADINE] | > 100 | > 55.9 | 62.3 | 1.79 | – | – | – | – | – | – | – | –
2 | CCOC(=O)C1=C[C@@H](OC(CC)CC)[C@H](NC(C)=O)[C@@H](N)C1 [OSELTAMIVIR] | – | – | – | – | 44 | > 200 | – | – | – | – | – | –
3 | O=C1c2c(O)c(=O)ccn2N([C@@H]2c3ccccc3SCc3c2ccc(F)c3F)[C@@H]2COCCN12 [BALOXAVIR] | 63.1 | 16600 | – | 0.004 | – | 30.9 | 0.006 | 21 | 0.071 | 0.00149 | 0.005 | Active
